From ChEMBL document CHEMBL4002621, “Novel 12N-substituted matrinanes as potential anti-coxsackievirus agents” (Bioorg Med Chem Lett, 2017)

Assays:
[1] = Cytotoxicity against African green monkey Vero cells assessed as growth inhibition after 48 hrs; assay type: cell-based; details: chlorocebus sabaeus, read-out: TC50
Coxsackievirus B3 = assay: Antiviral activity against Coxsackievirus B3 (strain Nancy) infected in African green monkey Vero cells assessed as reduction in viral-induced cytopathic effect by Reed and Muench analysis; assay type: functional; details: Enterovirus B
Coxsackievirus B4 = assay: Antiviral activity against Coxsackievirus B4 J.V.B infected in African green monkey Vero cells assessed as reduction in viral-induced cytopathic effect by Reed and Muench analysis; assay type: functional; details: Enterovirus B
[2] = Antiviral activity against Coxsackievirus B6 (strain Schmitt) infected in African green monkey Vero cells assessed as reduction in viral-induced cytopathic effect by Reed and Muench analysis; assay type: functional; details: Enterovirus B
Coxsackievirus A16 = assay: Antiviral activity against Coxsackievirus A16 shzh05-1 infected in African green monkey Vero cells assessed as reduction in viral-induced cytopathic effect by Reed and Muench analysis; assay type: functional; details: Enterovirus A, shzh05-1, Vero
[3] = Selectivity index, ratio of TC50 for African green monkey Vero cells to IC50 for Coxsackievirus B3 (strain Nancy) infected in African green monkey Vero cells; assay type: toxicity; details: read-out: Selectivity Index
[4] = Selectivity index, ratio of TC50 for African green monkey Vero cells to IC50 for Coxsackievirus A16 shzh05-1 infected in African green monkey Vero cells; assay type: toxicity; details: read-out: Selectivity Index
[5] = Selectivity index, ratio of TC50 for African green monkey Vero cells to IC50 for Coxsackievirus B6 (strain Schmitt) infected in African green monkey Vero cells; assay type: toxicity; details: read-out: Selectivity Index
Coxsackievirus B5 = assay: Antiviral activity against Coxsackievirus B5 Faulkner infected in African green monkey Vero cells assessed as reduction in viral-induced cytopathic effect by Reed and Muench analysis; assay type: functional; details: Enterovirus B
[6] = Antiviral activity against Coxsackievirus B2 (strain Ohio-1) infected in African green monkey Vero cells assessed as reduction in viral-induced cytopathic effect by Reed and Muench analysis; assay type: functional; details: Enterovirus B
[7] = Selectivity index, ratio of TC50 for African green monkey Vero cells to IC50 for Coxsackievirus B4 J.V.B infected in African green monkey Vero cells; assay type: toxicity; details: read-out: Selectivity Index
[8] = Acute toxicity in po dosed Kunming mouse assessed as effect on body weight and survival administered as single dose measured up to 7 days; assay type: organism-based; details: in vivo
[9] = Selectivity index, ratio of TC50 for African green monkey Vero cells to IC50 for Coxsackievirus B1 Conn-5 infected in African green monkey Vero cells; assay type: toxicity; details: read-out: Selectivity Index
[10] = Selectivity index, ratio of TC50 for African green monkey Vero cells to IC50 for Coxsackievirus B5 Faulkner infected in African green monkey Vero cells; assay type: toxicity; details: read-out: Selectivity Index
[11] = Selectivity index, ratio of TC50 for African green monkey Vero cells to IC50 for Coxsackievirus B2 (strain Ohio-1) infected in African green monkey Vero cells; assay type: toxicity; details: read-out: Selectivity Index
Coxsackievirus B1 = assay: Antiviral activity against Coxsackievirus B1 Conn-5 infected in African green monkey Vero cells assessed as reduction in viral-induced cytopathic effect by Reed and Muench analysis; assay type: functional; details: Enterovirus B, Conn-5, Vero

Row | SMILES | CC50 at 48 h [1] | IC50 (Coxsackievirus B3) | selectivity ratio [3] | also measured
1 | CCCC[C@@H]1[C@H]2CCCN3CCC[C@@H](CN1C(=O)c1ccccc1O)[C@@H]23 | 324 µM | > 62.3 µM |  | 
2 | CCCC[C@@H]1[C@H]2CCCN3CCC[C@@H](CN1S(=O)(=O)c1cccnc1)[C@@H]23 | 200 to 592 µM | 3.99 µM | > 148 | IC50 (Coxsackievirus B4): 3.43 µM; IC50 [2]: 3.43 µM; IC50 (Coxsackievirus A16): 7.41 µM; selectivity ratio [4]: > 27; selectivity ratio [5]: > 58.1; IC50 (Coxsackievirus B5): 3.43 µM; IC50 [6]: 3.35 µM; selectivity ratio [7]: > 58.3; LD50 at 168 h [8]: 330 mg/kg; selectivity ratio [9]: > 99; selectivity ratio [10]: > 58.3; selectivity ratio [11]: > 59.7; IC50 (Coxsackievirus B1): 2.02 µM
3 | CCCC[C@@H]1[C@H]2CCCN3CCC[C@@H](CN1S(=O)(=O)c1ccsc1C(=O)OC)[C@@H]23 | > 200 µM | 4.94 µM | > 40.5 | 
4 | CCCC[C@@H]1[C@H]2CCCN3CCC[C@@H](CN1C(=O)c1ccccc1OC(C)=O)[C@@H]23 | 241 µM | 14.1 µM | 17.1 | 
5 | CCCC[C@@H]1[C@H]2CCCN3CCC[C@@H](CN1Cc1ccccc1)[C@@H]23 | 96.2 µM | > 22.2 µM |  | 
6 | CCCC[C@@H]1[C@H]2CCCN3CCC[C@@H](CN1C(=O)c1ccc(OC)cc1)[C@@H]23 | 116 µM | 6.17 µM | 18.7 | 
7 | CCCC[C@@H]1[C@H]2CCCN3CCC[C@@H](CN1S(=O)(=O)c1cccs1)[C@@H]23 | 251 µM | 19.4 µM | 13 | 
8 | CCCC[C@@H]1[C@H]2CCCN3CCC[C@@H](CN1C(=O)CCC)[C@@H]23 | 200 µM | 32 µM | 6.24 | 
9 | CCCC[C@@H]1[C@H]2CCCN3CCC[C@@H](CN1S(=O)(=O)c1sc(N)nc1C)[C@@H]23 | 233 µM | > 53.8 µM |  | 
10 | CCCC[C@@H]1[C@H]2CCCN3CCC[C@@H](CN1C(=O)N1CCN(S(C)(=O)=O)C1=O)[C@@H]23 | > 469 µM | 52.1 µM | > 9 | 
11 | CCCC[C@@H]1[C@H]2CCCN3CCC[C@@H](CN1S(=O)(=O)CCN)[C@@H]23 | 280 µM | > 64.7 µM |  | 
12 | CCCC[C@@H]1[C@H]2CCCN3CCC[C@@H](CN1S(=O)(=O)c1ccc4oc(=O)ccc4c1)[C@@H]23 | 180 µM | 3.21 µM | 56 | 
13 | CCCC[C@@H]1[C@H]2CCCN3CCC[C@@H](CN1S(=O)(=O)c1cccc(C#N)c1)[C@@H]23 | 183 µM | 1.26 µM | 146 | 
14 | CCCC[C@@H]1[C@H]2CCCN3CCC[C@@H](CN1S(=O)(=O)c1cccc(C(N)=O)c1)[C@@H]23 | 230 µM | 7.47 µM | 30.7 | 
15 | CCCC[C@@H]1[C@H]2CCCN3CCC[C@@H](CN1Cc1ccc(C(=O)OC)cc1)[C@@H]23 | 96.2 µM | 6.17 µM | 15.6 | 
16 | CCCC[C@@H]1[C@H]2CCCN3CCC[C@@H](CN1S(=O)(=O)c1sc(NC(C)=O)nc1C)[C@@H]23 | 96.2 µM | 2.06 µM | 46.7 | 
17 | CCCC[C@@H]1[C@H]2CCCN3CCC[C@@H](CN1S(=O)(=O)c1ccccc1C(N)=O)[C@@H]23 | 276 µM | 23.3 µM | 11.8 | 
18 | CCCC[C@@H]1[C@H]2CCCN3CCC[C@@H](CN1C(=O)c1cc(OC)c(OC)c(OC)c1)[C@@H]23 | 115 to 200 µM | 3.95 µM | > 50.6 | IC50 (Coxsackievirus B4): 4.94 µM; IC50 [2]: 3.43 µM; IC50 (Coxsackievirus A16): 6.17 µM; selectivity ratio [4]: 18.7; selectivity ratio [5]: 33.7; IC50 (Coxsackievirus B5): 7.41 µM; IC50 [6]: 3.43 µM; selectivity ratio [7]: 23.4; LD50 at 168 h [8]: 327 mg/kg; selectivity ratio [9]: 23.4; selectivity ratio [10]: 15.6; selectivity ratio [11]: 33.7; IC50 (Coxsackievirus B1): 4.94 µM
19 | CCCC[C@@H]1[C@H]2CCCN3CCC[C@@H](CN1S(=O)(=O)c1cn(C)cn1)[C@@H]23 | > 200 µM | > 66.7 µM |  | 
20 | CCCC[C@@H]1[C@H]2CCCN3CCC[C@@H](CN1S(=O)(=O)c1ccc(C(N)=O)cc1)[C@@H]23 | 331 µM | 124 µM | 2.68 | 
21 | NC(=O)c1ncn([C@@H]2O[C@H](CO)[C@@H](O)[C@H]2O)n1 [RIBAVIRIN] | 6360 to 40900 µM | 379 µM | 16.8 | IC50 (Coxsackievirus B4): > 40900 µM; IC50 (Coxsackievirus A16): 9620 µM; selectivity ratio [4]: > 4.3; selectivity ratio [5]: > 19.6; IC50 [6]: > 40900 µM; selectivity ratio [9]: > 17.2; selectivity ratio [10]: > 12.3
22 | CCCC[C@@H]1[C@H]2CCCN3CCC[C@@H](CN1C(=O)CC(=O)OC)[C@@H]23 | > 200 µM | 46.2 µM | > 4.33 | 
23 | CCCC[C@@H]1[C@H]2CCCN3CCC[C@@H](CN1C(=O)c1c(C)noc1C)[C@@H]23 | > 556 µM | 6.87 µM | > 81 | 
24 | CCCC[C@@H]1[C@H]2CCCN3CCC[C@@H](CN1C(=O)CCC(=O)OC)[C@@H]23 | > 200 µM | 11.1 µM | > 18.1 | 
25 | CCCC[C@@H]1[C@H]2CCCN3CCC[C@@H](CN1S(=O)(=O)c1ccsc1C(=O)O)[C@@H]23 | > 200 µM | 15 µM | > 13.3 | 
